In the assay the target is BRD4-2 (Homo sapiens (Human), UniProt O60885). Briefly: Bromodomain and Extraterminal Domain (BET) Binding Assay. Conditions: Table 3; read-out: BRD4-2 IC50. The method, then: The bromodomain binding assays were performed by Reaction Biology Corp., Malvern, Pa., USA (www.reactionbiology.com). The BET binding assays were conducted in 384 well microplates in assay buffer (50 mM HEPES-HCl, pH 7.5, 100 mM NaCl, 1 mg/ml BSA, 0.05% CHAPS, and 0.5% DMSO) with compounds added as DMSO stocks at a single concentration or with 10-point dose response titrations. BET protein or assay buffer were delivered to the appropriate wells of the microplate. Test compound was then delivered by acoustic technology via a Labcyte Echo550 liquid handler. The microplate was centrifuged for 5 min and pre-incubated for 30 min at RT with gentle shaking. The ligand (histone H4 peptide (1-21) K5/8/12/16Ac-biotin) was delivered and the microplate was again centrifuged for 5 min and allowed to incubate for 30 min at RT with gentle shaking. Donor beads were then added in the absence of light and the microplate was centrifuged and gently shaken. After 5 min, acceptor beads were added in the absence of light and the microplate was centrifuged and gently shakenin the dark for 60 min. The microplate was read using a Perkin Elmer EnSpire Alpha plate reader (λEx/λEm=680/520-620 nm). Percent inhibition was calculated relative to positive and negative controls on a per plate basis. For titration experiments, IC50 values were determined by fitting the percent inhibition versus compound concentration.

The IC50 is the concentration needed to halve the response being measured. Take `C=CS(=O)(=O)Nc1ccc(Oc2ccc(F)cc2F)c(-c2c[nH]c(=O)c3ccccc23)c1` [Compound 18, N-(4-(2,4-difluorophenoxy)-3-(1-oxo-1,2-dihydroisoquinolin-4-yl)phenyl)ethenesulfonamide]: the half-inhibitory concentration (IC50) was more than 10000 nM.
Take `C=CS(=O)(=O)Nc1ccc(Oc2ccc(F)cc2F)c(-c2cnc(=O)n(C)c2)c1` [Compound 19, N-(4-(2,4-difluorophenoxy)-3-(1-methyl-2-oxo-1,2-dihydropyrimidin-5-yl)phenyl)ethenesulfonamide]: the IC50 is 1450 nM.
Consider `C=CC(=O)N(C)c1ccc(Oc2ccc(F)cc2F)c(-c2cc(NC)c(=O)n(C)c2)c1` [Compound 394, N-(4-(2,4-difluorophenoxy)-3-(1-methyl-5-(methylamino)-6-oxo-1,6-dihydropyridin-3-yl)phenyl)-N-methylacrylamide], for which the IC50 was determined as 134 nM.
As to `C=CS(=O)(=O)Nc1ccc(Oc2ccc(F)cc2F)c(-c2cn(C)c(=O)c3ccccc23)c1` [Compound 10, N-(4-(2,4-difluorophenoxy)-3-(2-methyl-1-oxo-1,2-dihydroisoquinolin-4-yl)phenyl)ethenesulfonamide], the IC50 worked out at 56 nM.
In the case of `C=CC(=O)Nc1ccc(Oc2ccc(Cl)c(F)c2)c(-c2cn(C)c(=O)c3ccccc23)c1` [Compound 32, N-(4-(4-chloro-3-fluorophenoxy)-3-(2-methyl-1-oxo-1,2-dihydroisoquinolin-4-yl)phenyl)acrylamide], the IC50 was 717 nM.
As for `C=CS(=O)(=O)Nc1ccc(Oc2ccc(F)cc2)c(-c2cc(NC)c(=O)n(C)c2)c1` [Compound 7, N-(4-(4-fluorophenoxy)-3-(1-methyl-5-(methylamino)-6-oxo-1,6-dihydropyridin-3-yl)phenyl)ethenesulfonamide], the figure is 24 nM; as for `C=CS(=O)(=O)Nc1ccc(OC)c(-c2cc(NC)c(=O)n(C)c2)c1` [Compound 20, N-(4-methoxy-3-(1-methyl-5-(methylamino)-6-oxo-1,6-dihydropyridin-3-yl)phenyl)ethenesulfonamide], 3860 nM; as for `C=CC(=O)Nc1cccc(Oc2ccc(F)cc2)c1-c1cc(NC)c(=O)n(C)c1` [Compound 23, N-(3-(4-fluorophenoxy)-2-(1-methyl-5-(methylamino)-6-oxo-1,6-dihydropyridin-3-yl)phenyl)acrylamide], more than 10000 nM.
Consider `C=CC(=O)Nc1ccc(Oc2ccc(C)cc2)c(-c2cc(NC)c(=O)n(C)c2)c1` [Compound 6, N-(3-(1-methyl-5-(methylamino)-6-oxo-1,6-dihydropyridin-3-yl)-4-(p-tolyloxy)phenyl)acrylamide], for which the IC50 was determined as 120 nM.
`C=CC(=O)Nc1ccc(Oc2ccc(F)cc2)c(-c2cn(C(C)C)c(=O)c3ccccc23)c1` [Compound 28, N-(4-(4-fluorophenoxy)-3-(2-isopropyl-1-oxo-1,2-dihydroisoquinolin-4-yl)phenyl)acrylamide]: the half-maximal inhibitory concentration (IC50) was 17900 nM.
For `C=CC(=O)Nc1ccc(Oc2ccc(OC)cc2)c(-c2cc(NC)c(=O)n(C)c2)c1` [Compound 5, N-(4-(4-methoxyphenoxy)-3-(1-methyl-5-(methylamino)-6-oxo-1,6-dihydropyridin-3-yl)phenyl)acrylamide], the 50% inhibitory concentration (IC50) amounted to 142 nM.
In the case of `C=CC(=O)Nc1ccc(Oc2ccc(F)cc2F)c(-c2cn(C)c(=O)c3ccccc23)c1` [Compound 9, N-(4-(2,4-difluorophenoxy)-3-(2-methyl-1-oxo-1,2-dihydroisoquinolin-4-yl)phenyl)acrylamide], the half-maximal inhibitory concentration (IC50) worked out at 319 nM.
Turning to `C=CC(=O)n1cc(-c2cc(NS(=O)(=O)CC)ccc2Oc2ccc(F)cc2F)c2ccccc2c1=O` [Compound 662, N-(3-(2-acryloyl-1-oxo-1,2-dihydroisoquinolin-4-yl)-4-(2,4-difluorophenoxy)phenyl)ethanesulfonamide], the IC50 is more than 10000 nM.
Regarding `C=CS(=O)(=O)Nc1ccc(Oc2ccc(F)cc2)c(-c2cn(C)c(=O)c3ccccc23)c1` [Compound 11, N-(4-(4-fluorophenoxy)-3-(2-methyl-1-oxo-1,2-dihydroisoquinolin-4-yl)phenyl)ethenesulfonamide], the IC50 is 14 nM.
As to `C=CC(=O)Nc1ccc(Oc2ccc(F)cc2F)c(-c2nn(C)c(=O)cc2OC)c1` [Compound 403, N-(4-(2,4-difluorophenoxy)-3-(4-methoxy-1-methyl-6-oxo-1,6-dihydropyridazin-3-yl)phenyl)acrylamide], the IC50 was 206 nM.
As for `C=CS(=O)(=O)Nc1ccc(Oc2ccc(C)cc2)c(-c2cn(C)c(=O)c3ccccc23)c1` [Compound 13, N-(3-(2-methyl-1-oxo-1,2-dihydroisoquinolin-4-yl)-4-(p-tolyloxy)phenyl)ethenesulfonamide], the figure is 24 nM.
As for `C=CC(=O)Nc1ccc(Oc2ccc(F)cc2)c(-c2cn(C)c(=O)c3ccccc23)c1` [Compound 26, N-(4-(4-fluorophenoxy)-3-(2-methyl-1-oxo-1,2-dihydroisoquinolin-4-yl)phenyl)acrylamide], the figure is 281 nM; as for `C=CS(=O)(=O)Nc1ccc(Nc2ccc(F)cc2F)c(-c2cc(NC)c(=O)n(C)c2)c1` [Compound 21, N-(4-(2,4-difluorophenylamino)-3-(1-methyl-5-(methylamino)-6-oxo-1,6-dihydropyridin-3-yl)phenyl)ethenesulfonamide], 11 nM.
Take `C=CS(=O)(=O)Nc1ccc(Oc2ccc(F)cc2F)c(-c2c[nH]c(=O)c(NC)c2)c1` [Compound 22, N-(4-(2,4-difluorophenoxy)-3-(5-(methylamino)-6-oxo-1,6-dihydropyridin-3-yl)phenyl)ethenesulfonamide]: the IC50 stood at 3850 nM.
As for `C=CS(=O)(=O)Nc1ccc(Oc2ccc(C)cc2)c(-c2cc(NC)c(=O)n(C)c2)c1` [Compound 4, N-(3-(1-methyl-5-(methylamino)-6-oxo-1,6-dihydropyridin-3-yl)-4-(p-tolyloxy)phenyl)ethenesulfonamide], the figure is 22 nM; as for `C=CC(=O)Nc1ccc(Oc2ccc(F)cc2F)c(-c2cn(C)c(=O)c3c2OCC(=O)N3)c1` [Compound 404, N-(4-(2,4-difluorophenoxy)-3-(6-methyl-3,5-dioxo-3,4,5,6-tetrahydro-2H-pyrido[4,3-b][1,4]oxazin-8-yl)phenyl)acrylamide], 1830 nM; as for `C=CS(=O)(=O)Nc1ccc(Oc2ccc(OC)cc2)c(-c2cc(NC)c(=O)n(C)c2)c1` [Compound 8, N-(4-(4-methoxyphenoxy)-3-(1-methyl-5-(methylamino)-6-oxo-1,6-dihydropyridin-3-yl)phenyl)ethenesulfonamide], 17 nM.
`C=CC(=O)Nc1ccc(Nc2c(F)cccc2F)c(-c2cn(C)c(=O)c3ccccc23)c1` [Compound 319, N-(4-(2,6-difluorophenylamino)-3-(2-methyl-1-oxo-1,2-dihydroisoquinolin-4-yl)phenyl)acrylamide]: the 50% inhibitory concentration (IC50) came to 1800 nM.
In the case of `C=CC(=O)Nc1ccc(Nc2ccc(C)cc2)c(-c2cn(C)c(=O)c3ccccc23)c1` [Compound 309, N-(3-(2-methyl-1-oxo-1,2-dihydroisoquinolin-4-yl)-4-(p-tolylamino)phenyl) acrylamide], the IC50 was 2120 nM.
As for `C=CC(=O)Nc1ccc(OC(C)C)c(-c2cc(NC)c(=O)n(C)c2)c1` [Compound 24, N-(4-isopropoxy-3-(1-methyl-5-(methylamino)-6-oxo-1,6-dihydropyridin-3-yl)phenyl)acrylamide], the figure is 779 nM; as for `C=CC(=O)Nc1ccc(Oc2ccc(C)cc2)c(-c2cn(C)c(=O)c3ccccc23)c1` [Compound 25, N-(3-(2-methyl-1-oxo-1,2-dihydroisoquinolin-4-yl)-4-(p-tolyloxy)phenyl)acrylamide], 264 nM.
As for `C#CC(=O)Nc1ccc(Oc2ccc(F)cc2F)c(-c2cn(C)c(=O)c3ccccc23)c1` [Compound 74, N-(4-(2,4-difluorophenoxy)-3-(2-methyl-1-oxo-1,2-dihydroisoquinolin-4-yl)phenyl)propiolamide], the figure is 239 nM; as for `C=CC(=O)Nc1ccc(Oc2ccc(Cl)cc2)c(-c2cn(C)c(=O)c3ccccc23)c1` [Compound 31, N-(4-(4-chlorophenoxy)-3-(2-methyl-1-oxo-1,2-dihydroisoquinolin-4-yl)phenyl)acrylamide], 413 nM; as for `C=CC(=O)Nc1ccc(N(C)c2ccc(F)cc2F)c(-c2cn(C)c(=O)c3sc(C(=O)NCC)cc23)c1` [Compound 612, 4-(5-acrylamido-2-((2,4-difluorophenyl)(methyl)amino)phenyl)-N-ethyl-6-methyl-7-oxo-6,7-dihydrothieno[2,3-c]pyridine-2-carboxamide], more than 10000 nM.
For `C=CS(=O)(=O)Nc1ccc(Oc2ccc(F)cc2F)c(-c2cn(C)c(=O)c3c2CCNC3)c1` [Compound 14, N-(4-(2,4-difluorophenoxy)-3-(2-methyl-1-oxo-1,2,5,6,7,8-hexahydro-2,7-naphthyridin-4-yl)phenyl)ethenesulfonamide], the concentration for half-maximal inhibition (IC50) was more than 10000 nM.
`C=CC(=O)Nc1ccc(Nc2ccc(F)cc2F)c(-c2cc(NC)c(=O)n(C)c2)c1` [Compound 288, N-(4-(2,4-difluorophenylamino)-3-(1-methyl-5-(methylamino)-6-oxo-1,6-dihydropyridin-3-yl)phenyl)acrylamide]: the IC50 worked out at 889 nM.
As to `C=CC(=O)Nc1ccc(OC(F)(F)F)c(-c2cn(C)c(=O)c3ccccc23)c1` [Compound 27, N-(3-(2-methyl-1-oxo-1,2-dihydroisoquinolin-4-yl)-4-(trifluoromethoxy)phenyl)acrylamide], the half-inhibitory concentration (IC50) was 3250 nM.
